Measurements published in US7906137B2, “Delivery agents for enhancing mucosal absorption of therapeutic agents” (Mediplex Corporation, Korea, priority 2004, dated 2011).

Molecular target: insulin (Homo sapiens, UniProt P01308)
Assay: Dissociation of high order protein aggregates by circular dichroism
Type: physicochemical
Conditions: 0.18 mM insulin, 0.18-37 mM MP-DCK, CD 300 to 250 nm, room temperature (FIG. 5)
Procedure: A circular dichroism spectropolarimeter (Jasco J-715, Tokyo, Japan) was used to measure the effect of a delivery carrier on the aggregation state of insulin. Solutions containing 0.18 mM insulin and different concentration of MP-DCK (0.18-37 mM) were scanned from 300 to 250 nm at room temperature at a scanning speed of 50 nm/min using a cuvette with a pathlength of 0.1 cm. The results of the test are illustrated in FIG. 5.

insulin, sequence (P01308 25-54 limits assumed): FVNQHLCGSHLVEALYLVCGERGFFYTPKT
insulin, sequence (P01308 90-110 limits assumed): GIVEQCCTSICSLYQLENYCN

## COC(=O)[C@H](CCCCN)NC(=O)CC[C@@H](C)[C@H]1CC[C@H]2[C@@H]3CC[C@@H]4C[C@H](O)CC[C@]4(C)[C@H]3C[C@H](O)[C@]12C [DCK, N^α-deoxychoyl-L-lysine-methylester]
  aggregation state of insulin: decrease the aggregation state of the insulin
